Reference: patent US20070134178A1, “Skin lightening complex” (priority 2005, published 2007)

Experiments:
[1] = about 20% HQ in the complex, solvent mixture of two solvents of different polarity index
Source text: Although the melanin-inhibiting effectiveness of HQ is desirable, water-based formulations containing high concentration HQ are difficult to prepare due to limitations in its solubility.

[2] = 25° C; cited from earlier work

**Q.** Which “times more HQ dissolved in the solvent mixture than in aqueous media” value [1] does the source give for `Oc1ccc(O)cc1` [HQ, 1,4-benzenediol] here?
**A.** about 38.5 times

**Q.** What about the “HQ solubility in aqueous media” value [2] of the same compound?
**A.** up to 7.3 g/L
